Measured values published in the NIST ThermoML archive (doi:10.1021/je200825j).

Details: Liquid mixture 1, Drop weight

CCCCCCCCCC [decane] + O
Details | interfacial tension [mN/m]
297.85 K, 110 kPa | 51.96
323.35 K, 180 kPa | 47.78
323.35 K, 22250 kPa | 48.88
323.35 K, 39800 kPa | 49.11
343.45 K, 150 kPa | 46.28
343.45 K, 22850 kPa | 47.68
343.45 K, 49020 kPa | 48.39
374.25 K, 200 kPa | 42.87
374.25 K, 23000 kPa | 44.13
374.25 K, 47150 kPa | 45.21
403.05 K, 400 kPa | 39.59
403.05 K, 24500 kPa | 40.33
403.05 K, 48000 kPa | 40.9
442.85 K, 1150 kPa | 32.36
442.85 K, 46400 kPa | 36.89
